Experiment: xn = mol fraction of the nth substance listed

CC(C)=O + c1ccccc1
Conditions	viscosity [mPa·s]
293.15 K, 101 kPa, x1 = 0.086	0.598
293.15 K, 101 kPa, x1 = 0.1	0.592
293.15 K, 101 kPa, x1 = 0.1304	0.581
293.15 K, 101 kPa, x1 = 0.248	0.535
293.15 K, 101 kPa, x1 = 0.269	0.528
293.15 K, 101 kPa, x1 = 0.287	0.513
293.15 K, 101 kPa, x1 = 0.4005	0.47
293.15 K, 101 kPa, x1 = 0.408	0.471
293.15 K, 101 kPa, x1 = 0.5661	0.416
293.15 K, 101 kPa, x1 = 0.587	0.414
293.15 K, 101 kPa, x1 = 0.6783	0.385
293.15 K, 101 kPa, x1 = 0.767	0.376
293.15 K, 101 kPa, x1 = 0.7899	0.357
293.15 K, 101 kPa, x1 = 0.864	0.362
293.15 K, 101 kPa, x1 = 0.9053	0.332
293.16 K, 101 kPa, x1 = 0.1304	0.581
293.16 K, 101 kPa, x1 = 0.287	0.513
293.16 K, 101 kPa, x1 = 0.4005	0.47
293.16 K, 101 kPa, x1 = 0.5661	0.416
293.16 K, 101 kPa, x1 = 0.6783	0.385
293.16 K, 101 kPa, x1 = 0.7899	0.357
293.16 K, 101 kPa, x1 = 0.9053	0.332
298.15 K, 101 kPa, x1 = 0.092	0.5569
298.15 K, 101 kPa, x1 = 0.1304	0.534
298.15 K, 101 kPa, x1 = 0.1895	0.5185
298.15 K, 101 kPa, x1 = 0.2364	0.4968
298.15 K, 101 kPa, x1 = 0.287	0.484
298.15 K, 101 kPa, x1 = 0.2986	0.4766
298.15 K, 101 kPa, x1 = 0.3321	0.4654
298.15 K, 101 kPa, x1 = 0.4005	0.446
298.15 K, 101 kPa, x1 = 0.4076	0.4368
298.15 K, 101 kPa, x1 = 0.4692	0.4188
298.15 K, 101 kPa, x1 = 0.49	0.4158
298.15 K, 101 kPa, x1 = 0.5552	0.3985
298.15 K, 101 kPa, x1 = 0.5608	0.3975
298.15 K, 101 kPa, x1 = 0.5661	0.401
298.15 K, 101 kPa, x1 = 0.6629	0.3692
298.15 K, 101 kPa, x1 = 0.6783	0.375
298.15 K, 101 kPa, x1 = 0.7262	0.3546
298.15 K, 101 kPa, x1 = 0.7691	0.3451
298.15 K, 101 kPa, x1 = 0.7899	0.351
298.15 K, 101 kPa, x1 = 0.808	0.3384
298.15 K, 101 kPa, x1 = 0.8946	0.3203
298.15 K, 101 kPa, x1 = 0.9053	0.33
298.16 K, 101 kPa, x1 = 0.1304	0.534
298.16 K, 101 kPa, x1 = 0.287	0.484
298.16 K, 101 kPa, x1 = 0.4005	0.446
298.16 K, 101 kPa, x1 = 0.5661	0.401
298.16 K, 101 kPa, x1 = 0.6783	0.375
298.16 K, 101 kPa, x1 = 0.7899	0.351
298.16 K, 101 kPa, x1 = 0.9053	0.33
303.15 K, 101 kPa, x1 = 0.086	0.523
303.15 K, 101 kPa, x1 = 0.1	0.518
303.15 K, 101 kPa, x1 = 0.248	0.475
303.15 K, 101 kPa, x1 = 0.269	0.469
303.15 K, 101 kPa, x1 = 0.2875	0.456
303.15 K, 101 kPa, x1 = 0.408	0.423
303.15 K, 101 kPa, x1 = 0.4185	0.417
303.15 K, 101 kPa, x1 = 0.5098	0.392
303.15 K, 101 kPa, x1 = 0.5498	0.382
303.15 K, 101 kPa, x1 = 0.587	0.375
303.15 K, 101 kPa, x1 = 0.6652	0.356
303.15 K, 101 kPa, x1 = 0.767	0.346
303.15 K, 101 kPa, x1 = 0.7851	0.331
303.15 K, 101 kPa, x1 = 0.864	0.332
303.15 K, 101 kPa, x1 = 0.8895	0.312
303.16 K, 101 kPa, x1 = 0.2875	0.456
303.16 K, 101 kPa, x1 = 0.4185	0.417
303.16 K, 101 kPa, x1 = 0.5098	0.392
303.16 K, 101 kPa, x1 = 0.5498	0.382
303.16 K, 101 kPa, x1 = 0.6652	0.356
303.16 K, 101 kPa, x1 = 0.7851	0.331
303.16 K, 101 kPa, x1 = 0.8895	0.312
307.35 K, 101.33 kPa, x1 = 0.1115	0.492
307.35 K, 101.33 kPa, x1 = 0.3573	0.419
307.35 K, 101.33 kPa, x1 = 0.4938	0.382
307.35 K, 101.33 kPa, x1 = 0.5562	0.374
307.35 K, 101.33 kPa, x1 = 0.6464	0.352
307.35 K, 101.33 kPa, x1 = 0.8853	0.308
313.15 K, 101 kPa, x1 = 0.086	0.464
313.15 K, 101 kPa, x1 = 0.1	0.46
313.15 K, 101 kPa, x1 = 0.248	0.424
313.15 K, 101 kPa, x1 = 0.269	0.419
313.15 K, 101 kPa, x1 = 0.408	0.378
313.15 K, 101 kPa, x1 = 0.587	0.344
313.15 K, 101 kPa, x1 = 0.767	0.32
313.15 K, 101 kPa, x1 = 0.864	0.309
323.15 K, 101 kPa, x1 = 0.086	0.436
323.15 K, 101 kPa, x1 = 0.1	0.436
323.15 K, 101 kPa, x1 = 0.248	0.404
323.15 K, 101 kPa, x1 = 0.269	0.4
323.15 K, 101 kPa, x1 = 0.408	0.361
323.15 K, 101 kPa, x1 = 0.587	0.33
323.15 K, 101 kPa, x1 = 0.767	0.309
